Measurements published in ChEMBL document CHEMBL1909046, “DrugMatrix in vitro pharmacology data”.

Key:
[1] = target: T1, Alpha-2A adrenergic receptor (Homo sapiens, UniProt P08913); assay type: cell membranes, Sf9, Membrane; note: in other assays of this panel Not Active means under 50% inhibition at 10 µM
T1 sequence (P08913 whole entry): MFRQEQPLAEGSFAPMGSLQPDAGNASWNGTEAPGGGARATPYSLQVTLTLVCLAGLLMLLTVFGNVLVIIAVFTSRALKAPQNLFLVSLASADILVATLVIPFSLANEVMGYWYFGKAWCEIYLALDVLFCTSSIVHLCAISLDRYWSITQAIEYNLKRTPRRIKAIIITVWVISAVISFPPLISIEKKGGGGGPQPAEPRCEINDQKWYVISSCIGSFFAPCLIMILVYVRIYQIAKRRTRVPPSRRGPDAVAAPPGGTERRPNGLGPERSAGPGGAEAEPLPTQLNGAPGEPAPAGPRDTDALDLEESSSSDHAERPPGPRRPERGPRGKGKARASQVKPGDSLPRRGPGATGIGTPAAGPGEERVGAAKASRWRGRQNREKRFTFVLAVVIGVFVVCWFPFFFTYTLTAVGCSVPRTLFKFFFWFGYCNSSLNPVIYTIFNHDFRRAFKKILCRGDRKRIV

Substance-K receptor = target: T2, Substance-K receptor (Homo sapiens, UniProt P21452); assay type: cell membranes, CHO, Membrane; settings: for Ki: read-out: Ki; for all read-outs here: in other assays of this panel Not Active means under 50% inhibition at 10 µM
T2 sequence (P21452 whole entry): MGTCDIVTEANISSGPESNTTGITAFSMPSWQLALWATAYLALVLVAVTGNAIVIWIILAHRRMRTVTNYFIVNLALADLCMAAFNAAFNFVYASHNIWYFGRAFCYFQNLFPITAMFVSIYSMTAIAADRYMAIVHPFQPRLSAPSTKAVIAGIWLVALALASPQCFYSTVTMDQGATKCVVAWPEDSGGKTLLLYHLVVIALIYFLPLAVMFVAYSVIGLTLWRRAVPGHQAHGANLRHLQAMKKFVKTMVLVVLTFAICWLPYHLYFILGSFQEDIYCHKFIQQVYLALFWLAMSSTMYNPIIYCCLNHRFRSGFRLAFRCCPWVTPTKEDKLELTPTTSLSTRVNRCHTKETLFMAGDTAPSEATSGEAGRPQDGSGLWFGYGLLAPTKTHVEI

[2] = DRUGMATRIX: Glutamate, NMDA, Agonism radioligand binding (ligand: [3H] CGP-39653); assay type: cell membranes, Rattus norvegicus, Wistar, Cerebral cortex, Membrane; settings: Not Active = under 50% inhibition at 10 µM
[3] = target: Receptor tyrosine-protein kinase erbB-2 (Homo sapiens, UniProt P04626); assay: biochemical; assay type: cell-based, Insect cells;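 note: inhibition of HER2 kinase enzyme activity, measured with Poly(Glu:Tyr) as the phosphorylation substrate; in other assays of this panel Not Active means under 50% inhibition at 10 µM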
Estrogen receptor = target: T3, Estrogen receptor (Homo sapiens, UniProt P03372); settings: sf9; note: in other assays of this panel Not Active means under 50% inhibition at 10 µM
T3 sequence (P03372 whole entry): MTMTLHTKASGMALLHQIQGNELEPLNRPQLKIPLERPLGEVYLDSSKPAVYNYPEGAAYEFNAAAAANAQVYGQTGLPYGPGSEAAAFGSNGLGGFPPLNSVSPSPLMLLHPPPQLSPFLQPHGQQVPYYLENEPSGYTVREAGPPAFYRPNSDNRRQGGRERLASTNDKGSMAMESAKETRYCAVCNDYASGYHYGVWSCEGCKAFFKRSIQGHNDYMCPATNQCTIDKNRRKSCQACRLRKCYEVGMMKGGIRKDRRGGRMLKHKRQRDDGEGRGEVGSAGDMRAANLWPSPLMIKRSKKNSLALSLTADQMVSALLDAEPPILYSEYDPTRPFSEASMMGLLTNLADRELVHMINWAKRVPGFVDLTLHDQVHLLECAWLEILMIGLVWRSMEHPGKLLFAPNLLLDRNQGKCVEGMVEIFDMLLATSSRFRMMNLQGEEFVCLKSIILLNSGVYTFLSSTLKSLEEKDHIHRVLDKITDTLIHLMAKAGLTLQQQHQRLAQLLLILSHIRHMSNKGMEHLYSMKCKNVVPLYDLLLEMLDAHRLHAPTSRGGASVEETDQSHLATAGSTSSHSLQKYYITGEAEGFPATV

Glucocorticoid receptor = target: T4, Glucocorticoid receptor (Homo sapiens, UniProt P04150); settings: hela s3; note: in other assays of this panel Not Active means under 50% inhibition at 10 µM
T4 sequence (P04150 whole entry): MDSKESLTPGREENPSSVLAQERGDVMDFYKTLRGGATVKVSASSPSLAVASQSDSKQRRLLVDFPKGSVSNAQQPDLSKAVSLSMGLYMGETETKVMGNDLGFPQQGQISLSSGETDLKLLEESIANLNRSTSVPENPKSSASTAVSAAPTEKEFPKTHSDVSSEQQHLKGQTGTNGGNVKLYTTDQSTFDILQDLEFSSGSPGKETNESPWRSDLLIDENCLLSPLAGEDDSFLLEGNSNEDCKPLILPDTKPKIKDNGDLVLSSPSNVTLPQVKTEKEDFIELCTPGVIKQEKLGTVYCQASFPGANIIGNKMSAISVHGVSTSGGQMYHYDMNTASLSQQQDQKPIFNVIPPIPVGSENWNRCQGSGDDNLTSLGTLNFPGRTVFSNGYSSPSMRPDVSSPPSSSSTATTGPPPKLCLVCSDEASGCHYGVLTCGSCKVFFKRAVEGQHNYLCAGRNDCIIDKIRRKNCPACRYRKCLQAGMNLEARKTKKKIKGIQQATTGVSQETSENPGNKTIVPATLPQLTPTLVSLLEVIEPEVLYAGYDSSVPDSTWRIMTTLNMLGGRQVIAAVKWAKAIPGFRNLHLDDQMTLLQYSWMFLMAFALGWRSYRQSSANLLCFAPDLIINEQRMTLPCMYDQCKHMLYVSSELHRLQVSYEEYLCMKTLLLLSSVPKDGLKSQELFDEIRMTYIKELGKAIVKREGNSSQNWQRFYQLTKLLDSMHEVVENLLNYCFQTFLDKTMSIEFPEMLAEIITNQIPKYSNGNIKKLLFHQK

Sequence of Receptor tyrosine-protein kinase erbB-2 (P04626 whole entry): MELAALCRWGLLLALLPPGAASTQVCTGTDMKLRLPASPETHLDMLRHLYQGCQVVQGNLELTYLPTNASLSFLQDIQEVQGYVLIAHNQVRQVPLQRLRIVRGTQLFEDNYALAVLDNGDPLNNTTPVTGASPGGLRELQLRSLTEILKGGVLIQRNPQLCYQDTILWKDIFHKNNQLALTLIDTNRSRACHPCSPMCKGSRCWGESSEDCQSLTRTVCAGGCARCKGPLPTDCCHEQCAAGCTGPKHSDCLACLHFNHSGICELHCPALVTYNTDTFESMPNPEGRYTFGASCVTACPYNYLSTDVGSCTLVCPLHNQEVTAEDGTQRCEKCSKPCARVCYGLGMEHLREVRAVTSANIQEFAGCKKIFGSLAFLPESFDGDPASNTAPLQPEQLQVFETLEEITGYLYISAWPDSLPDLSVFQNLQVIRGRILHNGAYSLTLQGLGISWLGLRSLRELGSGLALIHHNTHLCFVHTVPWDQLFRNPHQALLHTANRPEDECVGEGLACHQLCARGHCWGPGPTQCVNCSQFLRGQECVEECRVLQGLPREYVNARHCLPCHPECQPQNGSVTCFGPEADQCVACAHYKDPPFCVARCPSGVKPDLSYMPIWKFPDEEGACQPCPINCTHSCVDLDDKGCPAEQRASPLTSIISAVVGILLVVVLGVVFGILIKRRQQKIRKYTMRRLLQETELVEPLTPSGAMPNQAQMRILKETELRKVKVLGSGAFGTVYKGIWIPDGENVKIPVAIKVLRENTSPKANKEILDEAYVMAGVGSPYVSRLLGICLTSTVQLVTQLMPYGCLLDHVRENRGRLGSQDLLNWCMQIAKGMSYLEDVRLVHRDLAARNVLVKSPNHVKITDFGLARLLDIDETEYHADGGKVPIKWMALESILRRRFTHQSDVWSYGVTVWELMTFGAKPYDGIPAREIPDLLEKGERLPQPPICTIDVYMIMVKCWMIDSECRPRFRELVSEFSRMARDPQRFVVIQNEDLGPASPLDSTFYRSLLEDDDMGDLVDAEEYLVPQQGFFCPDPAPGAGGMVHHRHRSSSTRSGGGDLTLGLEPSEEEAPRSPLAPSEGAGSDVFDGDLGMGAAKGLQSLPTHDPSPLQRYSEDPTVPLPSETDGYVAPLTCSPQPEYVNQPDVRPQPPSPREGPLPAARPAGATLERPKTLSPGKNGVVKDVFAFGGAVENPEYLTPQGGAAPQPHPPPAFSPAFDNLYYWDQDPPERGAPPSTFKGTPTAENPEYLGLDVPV

Row | SMILES | IC50 ([1]; sf9) | IC50 (Substance-K receptor; read-out: IC50) [µM] | Ki (Substance-K receptor) [µM] | IC50 [2] | Ki [2] | IC50 ([3]; insect cells) | IC50 (Estrogen receptor) | IC50 (Glucocorticoid receptor) | IC50 (Substance-K receptor; cho) | IC50 ([3]; read-out: IC50) [µM] | Ki (Glucocorticoid receptor) | IC50 ([1]; read-out: IC50) [µM] | Ki ([1]; read-out: Ki) [µM]
1 | CC(C)(C)NC(=O)[C@@H]1C[C@@H]2CCCC[C@@H]2CN1C[C@@H](O)[C@H](Cc1ccccc1)NC(=O)[C@H](CC(N)=O)NC(=O)c1ccc2ccccc2n1 | Not Active | 6.21 | 2.07 | Not Active | Not Active | Not Active | Not Active | Not Active |  |  |  |  | 
2 | CC(=O)[C@@]1(O)CC[C@H]2[C@@H]3C[C@H](C)C4=CC(=O)CC[C@]4(C)[C@H]3CC[C@@]21C | Not Active |  |  | Not Active | Not Active | Not Active | Not Active |  | Not Active |  |  |  | 
3 | N[C@@H](Cc1ccc(N(CCCl)CCCl)cc1)C(=O)O | Not Active |  |  | Not Active | Not Active | Not Active |  | Not Active | Not Active |  |  |  | 
4 | CCCCc1oc2ccccc2c1C(=O)c1cc(I)c(OCCN(CC)CC)c(I)c1 [AMIODARONE] |  | 19.3 | 6.44 |  |  |  | Not Active | Not Active |  | 9.15 |  |  | 
5 | OCCN(CCO)c1nc(N2CCCCC2)c2nc(N(CCO)CCO)nc(N3CCCCC3)c2n1 [DIPYRIDAMOLE] | Not Active |  |  | Not Active | Not Active | Not Active | Not Active |  | Not Active |  |  |  | 
6 | Cc1oncc1C(=O)Nc1ccc(C(F)(F)F)cc1 [LEFLUNOMIDE] | Not Active |  |  | Not Active | Not Active | Not Active | Not Active | Not Active | Not Active |  |  |  | 
7 | c1ccc([C@H]2CN3CCSC3=N2)cc1 [LEVAMISOLE] | Not Active |  |  | Not Active | Not Active | Not Active | Not Active |  | Not Active |  | Not Active |  | 
8 | N[C@@H](Cc1ccc(O)c(O)c1)C(=O)O [LEVODOPA] | Not Active |  |  | Not Active | Not Active | Not Active |  | Not Active | Not Active |  |  |  | 
9 | N[C@@H](Cc1cc(I)c(Oc2ccc(O)c(I)c2)c(I)c1)C(=O)O [LIOTHYRONINE] | Not Active |  |  |  |  | Not Active | Not Active | Not Active | Not Active |  |  |  | 
10 | O=NN(CCCl)C(=O)NC1CCCCC1 [LOMUSTINE] | Not Active |  |  | Not Active | Not Active | Not Active |  |  | Not Active |  |  |  | 
11 | CCOC(=O)N1CCC(=C2c3ccc(Cl)cc3CCc3cccnc32)CC1 [LORATADINE] | Not Active |  |  | Not Active | Not Active | Not Active | Not Active | Not Active | Not Active |  |  |  | 
12 | Cn1ccnc1S [METHIMAZOLE] | Not Active |  |  | Not Active | Not Active | Not Active | Not Active |  | Not Active |  |  |  | 
13 | CC[C@@H](CO)NC(=O)[C@@H]1C=C2c3cccc4[nH]cc(c34)C[C@H]2N(C)C1 [METHYLERGONOVINE] |  |  |  | Not Active | Not Active | Not Active | Not Active | Not Active | Not Active |  |  | 1.59 | 0.596
